Results from the supplement of paper PMC10307832.

What was measured:
Experiment in all cases: relative viability (nuclei count vs DMSO), 5 days (fraction); higher = more cells survive
NCI-H1975 = test system: NCI-H1975
Procedure, shortened: (§1)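 Relative viability is defined as nuclei in treated wells over nuclei in vehicle wells. Duplicate plates were run and medians reported. Lung cancer cell lines in 1536-well plates were dosed by pin tool one day after seeding, with one drug or with a fixed anchor-drug dose plus five library-drug doses (not always all listed) in √10 steps, and nuclei were counted after 5 days.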

HOP-62 = test system: HOP-62
Procedure, shortened: as §1

NCI-H1734 = test system: NCI-H1734
Procedure, shortened: as §1

NCI-H2347 = test system: NCI-H2347
Procedure, shortened: as §1

HCC-15 = test system: HCC-15
Procedure, shortened: as §1

SW 1573 = test system: SW 1573
Procedure, shortened: as §1

NCI-H2228 = test system: NCI-H2228
Procedure, shortened: as §1

NCI-H522 = test system: NCI-H522
Procedure, shortened: as §1

SK-LU-1 = test system: SK-LU-1
Procedure, shortened: as §1

NCI-H1755 = test system: NCI-H1755
Procedure, shortened: as §1

LC-2-ad = test system: LC-2-ad
Procedure, shortened: as §1

NCI-H647 = test system: NCI-H647
Procedure, shortened: as §1

LOU-NH91 = test system: LOU-NH91
Procedure, shortened: as §1

NCI-H358 = test system: NCI-H358
Procedure, shortened: as §1

HCC-78 = test system: HCC-78
Procedure, shortened: as §1

NCI-H1915 = test system: NCI-H1915
Procedure, shortened: as §1

RERF-LC-KJ = test system: RERF-LC-KJ
Procedure, shortened: as §1

NCI-H2342 = test system: NCI-H2342
Procedure, shortened: as §1

NCI-H2126 = test system: NCI-H2126
Procedure, shortened: as §1

LXF-289 = test system: LXF-289
Procedure, shortened: as §1

NCI-H1792 = test system: NCI-H1792
Procedure, shortened: as §1

PC-3 [JPC-3] = test system: PC-3 [JPC-3]
Procedure, shortened: as §1

A-427 = test system: A-427
Procedure, shortened: as §1

NCI-H460 = test system: NCI-H460
Procedure, shortened: as §1

CC(C)Oc1cc(Nc2nc(N[C@@H](C)c3ccc(F)cn3)ncc2Cl)n[nH]1 [AZ23] + CC(=O)Nc1cccc(-n2c(=O)n(C3CC3)c(=O)c3c(Nc4ccc(I)cc4F)n(C)c(=O)c(C)c32)c1 [Trametinib] (partner 0.02 µM)
relative viability (NCI-H1975; first compound 0.01 µM): 0.387
relative viability (NCI-H1975; first compound 0.03162 µM): 0.495
relative viability (NCI-H1975; first compound 0.3162 µM): 0.302
relative viability (HOP-62; first compound 0.01 µM): 0.377
relative viability (HOP-62; first compound 0.03162 µM): 0.382
relative viability (HOP-62; first compound 0.3162 µM): 0.356
relative viability (NCI-H1734; first compound 0.01 µM): 0.733
relative viability (NCI-H1734; first compound 0.03162 µM): 0.726
relative viability (NCI-H1734; first compound 0.3162 µM): 0.436
relative viability (NCI-H2347; first compound 0.01 µM): 0.272
relative viability (NCI-H2347; first compound 0.03162 µM): 0.272
relative viability (NCI-H2347; first compound 0.3162 µM): 0.232
relative viability (HCC-15; first compound 0.01 µM): 0.382
relative viability (HCC-15; first compound 0.03162 µM): 0.413
relative viability (HCC-15; first compound 0.3162 µM): 0.243
relative viability (SW 1573; first compound 0.01 µM): 0.693
relative viability (SW 1573; first compound 0.03162 µM): 0.604
relative viability (SW 1573; first compound 0.3162 µM): 0.458
relative viability (NCI-H2228; first compound 0.01 µM): 0.523
relative viability (NCI-H2228; first compound 0.03162 µM): 0.631
relative viability (NCI-H2228; first compound 0.3162 µM): 0.401
relative viability (NCI-H522; first compound 0.01 µM): 0.894
relative viability (NCI-H522; first compound 0.03162 µM): 0.796
relative viability (NCI-H522; first compound 0.3162 µM): 0.617
relative viability (SK-LU-1; first compound 0.03162 µM): 0.509
relative viability (SK-LU-1; first compound 0.3162 µM): 0.474
relative viability (NCI-H1755; first compound 0.01 µM): 0.828
relative viability (NCI-H1755; first compound 0.03162 µM): 0.774
relative viability (NCI-H1755; first compound 0.3162 µM): 0.708
relative viability (LC-2-ad; first compound 0.01 µM): 1.09
relative viability (LC-2-ad; first compound 0.03162 µM): 0.898
relative viability (LC-2-ad; first compound 0.3162 µM): 0.868
relative viability (NCI-H647; first compound 0.01 µM): 0.61
relative viability (NCI-H647; first compound 0.03162 µM): 0.58
relative viability (NCI-H647; first compound 0.3162 µM): 0.509
relative viability (LOU-NH91; first compound 0.01 µM): 0.784
relative viability (LOU-NH91; first compound 0.03162 µM): 0.823
relative viability (LOU-NH91; first compound 0.3162 µM): 0.784
relative viability (NCI-H358; first compound 0.01 µM): 0.116
relative viability (NCI-H358; first compound 0.03162 µM): 0.137
relative viability (NCI-H358; first compound 0.3162 µM): 0.124
relative viability (HCC-78; first compound 0.01 µM): 0.494
relative viability (HCC-78; first compound 0.03162 µM): 0.669
relative viability (HCC-78; first compound 0.3162 µM): 0.418
relative viability (NCI-H1915; first compound 0.01 µM): 0.303
relative viability (NCI-H1915; first compound 0.03162 µM): 0.297
relative viability (NCI-H1915; first compound 0.3162 µM): 0.239
relative viability (RERF-LC-KJ; first compound 0.01 µM): 0.837
relative viability (RERF-LC-KJ; first compound 0.03162 µM): 0.883
relative viability (RERF-LC-KJ; first compound 0.3162 µM): 0.862
relative viability (NCI-H2342; first compound 0.01 µM): 0.752
relative viability (NCI-H2342; first compound 0.03162 µM): 0.828
relative viability (NCI-H2342; first compound 0.3162 µM): 0.72
relative viability (NCI-H2126; first compound 0.01 µM): 0.574
relative viability (NCI-H2126; first compound 0.03162 µM): 0.556
relative viability (NCI-H2126; first compound 0.3162 µM): 0.532
relative viability (LXF-289; first compound 0.01 µM): 0.74
relative viability (LXF-289; first compound 0.03162 µM): 0.671
relative viability (LXF-289; first compound 0.3162 µM): 0.615
relative viability (NCI-H1792; first compound 0.01 µM): 0.472
relative viability (NCI-H1792; first compound 0.03162 µM): 0.347
relative viability (NCI-H1792; first compound 0.3162 µM): 0.294
relative viability (PC-3 [JPC-3]; first compound 0.01 µM): 0.612
relative viability (PC-3 [JPC-3]; first compound 0.03162 µM): 0.787
relative viability (PC-3 [JPC-3]; first compound 0.3162 µM): 0.735
relative viability (A-427; first compound 0.01 µM): 0.569
relative viability (A-427; first compound 0.03162 µM): 0.717
relative viability (A-427; first compound 0.3162 µM): 0.684
relative viability (NCI-H460; first compound 0.01 µM): 0.119
relative viability (NCI-H460; first compound 0.03162 µM): 0.128
relative viability (NCI-H460; first compound 0.3162 µM): 0.166
